Test results as given in paper PMC7248693, “Synthesis and Biological Evaluation of 2-Substituted Benzyl-/Phenylethylamino-4-amino-5-aroylthiazoles as Apoptosis-Inducing Anticancer Agents” (Molecules, 2020).
Blank lines part the entries; values can stand above or below the molecule they belong to.

Assays:
[1] = test system: U-937; assay: Antiproliferative activity, MTT assay, U-937 cells; type: cell-based, human; settings: for IC50: Homo sapiens, U-937, 72 h, MTT, mean ± SE, at least three independent experiments
From the text: (§1) In Table 1, we summarize the antiproliferative activity of the 15 novel 2-arylalkylamino-4-amino-5-(3′,4′,5′-trimethoxybenzoyl)thiazole derivatives 8a–o against human leukemia (U-937) and melanoma (SK-MEL-1) tumor cells lines.
(§2) Human U-937 and SK-MEL-1 cell lines were from the German Collection of Microorganisms and Cell Cultures (Braunschweig, Germany; DSMZ No: ACC 5 and ACC 303, respectively). The U-937 is a myeloid leukemia cell line isolated from a histiocytic lymphoma. SK-MEL-1 is a melanoma cell line. Cells were cultured in suspension in RPMI 1640 medium supplemented with 10% (v/v) fetal bovine serum and antibiotics (100 μg mL^−1 streptomycin and 100 U mL^−1 penicillin), at 37 °C in a humidified atmosphere containing 5% CO2. The trypan blue exclusion method was used for counting the cells by a hemocytometer, and cell viability was always greater than 95% in all experiments. Compounds were dissolved in DMSO, and further dilutions were made in culture medium just before use. […] The effects on cell viability of synthetic compounds were determined using a colorimetric assay with the reduction of 3-(4,5-dimethyl-2-thiazolyl-)-2,5-diphenyl-2H-tetrazolium bromide (MTT) as previously described. Briefly, 5 × 10^3 cells were seeded in 96-well microculture plates with increasing concentrations of compounds for 72 h. Then, MTT (0.5 mg mL^−1) was added and incubated for 4 h, and the reaction was stopped with 20% sodium dodecyl sulfate. A570 was used as a measure of cell viability. Concentrations inducing a 50% inhibition of cell growth were determined graphically by nonlinear regression using the curve-fitting algorithm of GraphPad Prism 4.0 (GraphPad Inc La Jolla, CA, USA).

[2] = test system: SK-MEL-1; assay: Antiproliferative activity, MTT assay, SK-MEL-1 cells; type: cell-based, human; settings: for IC50: Homo sapiens, SK-MEL-1, 72 h, MTT, mean ± SE, at least three independent experiments
From the text: as §1, §2

[3] = target: T1, CDK9/CyclinK (Homo sapiens, UniProt P50750); assay: In vitro CDK inhibition assay (ADP-Glo), CDK9; type: biochemical; settings: single concentration of 10 μM; range over CDK4, CDK6, CDK9 and 8f, 8k; read-out: enzyme inhibition CDK9
T1 construct: purchased Promega
T1 sequence (P50750 whole entry): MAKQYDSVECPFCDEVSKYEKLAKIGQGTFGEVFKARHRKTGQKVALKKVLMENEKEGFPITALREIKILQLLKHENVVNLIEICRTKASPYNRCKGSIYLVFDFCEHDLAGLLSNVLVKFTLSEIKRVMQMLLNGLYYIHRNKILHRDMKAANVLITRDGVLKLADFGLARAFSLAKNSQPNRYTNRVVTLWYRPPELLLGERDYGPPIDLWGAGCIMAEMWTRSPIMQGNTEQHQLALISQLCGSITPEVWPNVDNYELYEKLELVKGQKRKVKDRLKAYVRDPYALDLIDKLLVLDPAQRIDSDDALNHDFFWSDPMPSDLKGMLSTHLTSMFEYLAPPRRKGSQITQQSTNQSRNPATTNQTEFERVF
T1 sequence (O75909 whole entry partner): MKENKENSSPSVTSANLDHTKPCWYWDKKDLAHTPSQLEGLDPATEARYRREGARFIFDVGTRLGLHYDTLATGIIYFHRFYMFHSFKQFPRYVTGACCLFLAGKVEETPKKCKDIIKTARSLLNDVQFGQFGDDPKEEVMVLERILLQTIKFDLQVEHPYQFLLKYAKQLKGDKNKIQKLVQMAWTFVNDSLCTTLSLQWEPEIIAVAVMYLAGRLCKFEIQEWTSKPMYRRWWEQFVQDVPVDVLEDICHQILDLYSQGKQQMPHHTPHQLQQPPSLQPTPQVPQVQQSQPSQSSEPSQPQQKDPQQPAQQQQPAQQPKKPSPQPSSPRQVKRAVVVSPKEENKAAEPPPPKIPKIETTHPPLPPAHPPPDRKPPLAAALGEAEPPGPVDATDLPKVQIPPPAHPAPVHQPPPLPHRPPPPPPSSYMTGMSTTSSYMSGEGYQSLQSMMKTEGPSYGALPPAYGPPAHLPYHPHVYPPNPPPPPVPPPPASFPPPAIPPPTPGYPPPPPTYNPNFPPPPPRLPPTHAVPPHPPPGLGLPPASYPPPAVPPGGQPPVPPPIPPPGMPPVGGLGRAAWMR
Method: (§3) The CDK4, 6 and 9 inhibitory activies were determined using the CDK4/Cyclin D1 Assay kit (ProQinase, Freiburg im Breisgau, Germany), CDK6/Cyclin D3 Kinase Enzyme System (Promega, Milan, Italy) and CDK9/CyclinK Kinase Enzyme System (Promega) by ADP-Glo CDK assays following the manufacturer’s instructions. The assay was performed with the test compounds at 10 μM.

[4] = Cytotoxicity against peripheral blood lymphocytes, MTT assay; type: cell-based; settings: human, peripheral blood lymphocytes (PBL) from healthy donors, read-out: IC50 cytotoxic activity against normal cells (PBL)
Method: In order to investigate the selective antiproliferative activity of the new synthesized compounds, we tested representative derivatives 8f and 8k against peripheral blood lymphocytes (PBL) isolated from healthy donors.
PBLs from healthy donors were obtained by separation on Lymphoprep (Fresenius KABI Norge AS, Halden, Norway) gradient. After extensive washing, cells were resuspended (1.0 × 10^6 cells/mL) in RPMI-1640 with 10% fetal bovine serum and incubated overnight in a 96-well tissue culture microtiter plate. Varying compound concentrations were added to the cells, and the MTT assay was used to assess viability after a 48 h treatment.

[5] = target: T2, CDK6/Cyclin D3 (Homo sapiens, UniProt Q00534); assay: In vitro CDK inhibition assay (ADP-Glo), CDK6; type: biochemical; settings: single concentration of 10 μM; range over CDK4, CDK6, CDK9 and 8f, 8k; read-out: enzyme inhibition CDK6
T2 construct: purchased Promega
T2 sequence (Q00534 whole entry): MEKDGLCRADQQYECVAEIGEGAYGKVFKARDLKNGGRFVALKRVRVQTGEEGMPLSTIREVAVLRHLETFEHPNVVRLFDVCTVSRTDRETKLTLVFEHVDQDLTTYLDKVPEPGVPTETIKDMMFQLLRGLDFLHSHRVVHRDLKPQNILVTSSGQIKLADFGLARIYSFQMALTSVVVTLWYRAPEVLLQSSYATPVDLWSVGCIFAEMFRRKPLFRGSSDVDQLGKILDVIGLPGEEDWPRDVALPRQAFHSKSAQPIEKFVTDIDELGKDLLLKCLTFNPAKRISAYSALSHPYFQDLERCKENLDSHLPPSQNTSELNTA
T2 sequence (P30281 whole entry partner): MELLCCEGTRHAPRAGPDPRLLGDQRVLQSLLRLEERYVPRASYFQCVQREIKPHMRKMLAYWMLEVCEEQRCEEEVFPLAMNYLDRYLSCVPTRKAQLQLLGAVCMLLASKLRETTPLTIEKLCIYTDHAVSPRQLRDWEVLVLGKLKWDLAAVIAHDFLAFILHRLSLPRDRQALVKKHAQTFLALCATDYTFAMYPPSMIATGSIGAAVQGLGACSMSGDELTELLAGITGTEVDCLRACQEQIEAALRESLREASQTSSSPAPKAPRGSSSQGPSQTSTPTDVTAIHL
Method: as §3

[6] = test system: U-937 leukemia cells; assay: Cell cycle analysis by flow cytometry (propidium iodide); type: cell-based, human
Method: Induction of apoptosis in cancer cells is recognized as an efficient strategy for cancer chemotherapy. For this reason, it was decided to determine whether these compounds display their cytotoxic action through alterations in cell cycle progression and induction of cell apotosis. To this end, the effects at different time periods (6, 12 and 24 h) with different concentrations (10 and 30 μM) of 8f and 8k on cell cycle progression on U-937 leukemia cells were investigated by flow cytometry analyses.
Flow cytometric analysis of propidium iodide-stained cells was performed as previously described. Briefly, U-937 cells were treated with the indicated compounds at the specified concentrations in RPMI 1640 medium. After treatments, cells were centrifuged for 10 min at 500× g, washed with cold phosphate-buffered saline (PBS), fixed with ice-cold 75% ethanol and stored at −20 °C for at least 1 h. Samples were then centrifuged at 500 × g for 10 min at 4 °C, washed with PBS, resuspended in 200 μL of PBS containing 100 μg mL^−1 RNase A and 50 μg mL^−1 propidium iodide and incubated for 1 h in the dark. The DNA content was analyzed by flow cytometry with a Becton-Dickinson FACSVerse^TM cytometer (BD Biosciences, San Jose, CA, USA). The percentage of cells in each phase of the cell cycle was determined for a minimum of 10^4 cells, and histograms were analyzed with Flowing 2.5.0 software.

[7] = target: T3, CDK4/Cyclin D1 (Homo sapiens, UniProt P11802); assay: In vitro CDK inhibition assay (ADP-Glo), CDK4; type: biochemical; settings: single concentration of 10 μM; range over CDK4, CDK6, CDK9 and 8f, 8k; read-out: enzyme inhibition CDK4
T3 construct: purchased ProQinase
T3 sequence (P11802 whole entry): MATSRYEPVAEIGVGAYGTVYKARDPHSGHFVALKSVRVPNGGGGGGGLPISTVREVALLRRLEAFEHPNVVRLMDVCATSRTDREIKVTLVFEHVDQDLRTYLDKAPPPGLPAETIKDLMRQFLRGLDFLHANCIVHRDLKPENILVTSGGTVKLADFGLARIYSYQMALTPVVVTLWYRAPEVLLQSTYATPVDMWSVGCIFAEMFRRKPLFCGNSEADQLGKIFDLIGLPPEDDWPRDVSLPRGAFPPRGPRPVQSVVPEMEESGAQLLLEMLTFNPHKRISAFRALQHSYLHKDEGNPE
T3 sequence (P24385 whole entry partner): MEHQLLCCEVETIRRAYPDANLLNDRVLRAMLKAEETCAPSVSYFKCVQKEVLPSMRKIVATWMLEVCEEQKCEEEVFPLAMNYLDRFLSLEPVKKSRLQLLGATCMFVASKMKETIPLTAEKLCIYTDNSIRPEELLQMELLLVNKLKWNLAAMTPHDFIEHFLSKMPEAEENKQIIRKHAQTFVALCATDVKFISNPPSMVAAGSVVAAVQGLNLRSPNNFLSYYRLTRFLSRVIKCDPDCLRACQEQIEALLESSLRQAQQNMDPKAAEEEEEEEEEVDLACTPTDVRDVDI
Method: as §3

[8] = test system: Bovine brain tubulin; assay: Inhibition of tubulin polymerization (turbidimetric assembly); type: biochemical
Method: Bovine brain tubulin was purified as described previously. To evaluate the effect of the compounds on tubulin assembly in vitro [31], varying concentrations were preincubated with 10 μM tubulin in glutamate buffer at 30 °C and then cooled to 0 °C. After addition of GTP, the mixtures were transferred to 0 °C cuvettes in a recording spectrophotometer and warmed to 30 °C, and the assembly of tubulin was observed turbidimetrically. The IC50 was defined as the compound concentration that inhibited the extent of assembly by 50% after a 20 min incubation.

Structure (SMILES): COc1ccc(-c2nc(N)c(C(=O)c3cc(OC)c(OC)c(OC)c3)s2)cc1 [1a, reference compound]
IC50 [1]: 34.3 ± 2.2 µM
IC50 [2]: 48.3 ± 4.6 µM

Structure (SMILES): COc1ccc(Nc2nc(N)c(C(=O)c3cc(OC)c(OC)c(OC)c3)s2)cc1 [2a, reference compound]
IC50 [1]: 0.484 ± 0.368 µM
IC50 [2]: 5.2 ± 1.4 µM

Structure (SMILES): COc1cc(C(=O)c2sc(NCc3ccc(F)cc3)nc2N)cc(OC)c1OC [8d, (4-Amino-2-((4-fluorobenzyl)amino)thiazol-5-yl)(3,4,5-trimethoxyphenyl)methanone]
melting point: 132 to 134 °C
IC50 [1]: 39.1 ± 4.2 µM
IC50 [2]: 51 ± 1.4 µM

Structure (SMILES): COc1cc(C(=O)c2sc(NCc3ccc(Cl)cc3)nc2N)cc(OC)c1OC [8e, (4-Amino-2-((4-chlorobenzyl)amino)thiazol-5-yl)(3,4,5-trimethoxyphenyl)methanone]
melting point: 156 to 159 °C
IC50 [1]: 8.7 ± 5.4 µM
IC50 [2]: 8.3 ± 5.5 µM
fold more potent than 8f ([2]; SK-MEL-1 cells): 1.5 fold

Structure (SMILES): COc1cc(C(=O)c2sc(NCCc3ccc(Cl)cc3)nc2N)cc(OC)c1OC [8f, (4-Amino-2-((4-chlorophenethyl)amino)thiazol-5-yl)(3,4,5-trimethoxyphenyl)methanone]
inhibition at 10 µM [3]: 2 to 8%
IC50 at 48 h [4]: > 100 µM
inhibition at 10 µM [5]: 2 to 8%
% G1 ([6]; 6 h, 10 µM): 40.4 ± 1.0 %
% G2-M ([6]; 6 h, 10 µM): 23.6 ± 1.3%
% S ([6]; 6 h, 10 µM): 29.3 ± 0.1 %
% Sub-G1 ([6]; 6 h, 10 µM): 4.4 ± 0.5%
% G1 ([6]; 6 h, 30 µM): 40.5 ± 1.6 %
% G2-M ([6]; 6 h, 30 µM): 23.3 ± 1.4%
% S ([6]; 6 h, 30 µM): 30.9 ± 0.4 %
% Sub-G1 ([6]; 6 h, 30 µM): 3.8 ± 0.1%
% G1 ([6]; 12 h, 10 µM): 47.8 ± 1.0%
% G2-M ([6]; 12 h, 10 µM): 21.5 ± 1.2%
% S ([6]; 12 h, 10 µM): 22.4 ± 0.2%
% Sub-G1 ([6]; 12 h, 10 µM): 6.5 ± 0.2 %
% G1 ([6]; 12 h, 30 µM): 27.4 ± 0.4 %
% G2-M ([6]; 12 h, 30 µM): 27.6 ± 0.6 %
% S ([6]; 12 h, 30 µM): 25.5 ± 0.1 %
% Sub-G1 ([6]; 12 h, 30 µM): 17.8 ± 1.0 %
% G1 ([6]; 24 h, 10 µM): 42.5 ± 0.3 %
% G2-M ([6]; 24 h, 10 µM): 15.0 ± 0.8%
% S ([6]; 24 h, 10 µM): 29.8 ± 0.3 %
% Sub-G1 ([6]; 24 h, 10 µM): 10.3 ± 0.7 %
% G1 ([6]; 24 h, 30 µM): 12.6 ± 0.7 %
% G2-M ([6]; 24 h, 30 µM): 16.6 ± 0.8%
% S ([6]; 24 h, 30 µM): 13.6 ± 0.6 %
% Sub-G1 ([6]; 24 h, 30 µM): 56.2 ± 2.0 %
increase of apoptotic cells with respect to control cells ([6]; 24 h, 30 µM): approximately 16.5 fold
inhibition at 10 µM [7]: 2 to 8%
IC50 [1]: 6.7 ± 3.6 µM
IC50 ([8]; 10 μM tubulin, 20 min incubation at 30 °C): > 20 µM
inhibition of tubulin polymerization ([8]; at high concentrations (up to 20 μM)): did not show any noteworthy inhibition
IC50 [2]: 12.2 ± 3.2 µM

Structure (SMILES): COc1cc(C(=O)c2sc(NCc3ccc(Br)cc3)nc2N)cc(OC)c1OC [8g, (4-Amino-2-((4-bromobenzyl)amino)thiazol-5-yl)(3,4,5-trimethoxyphenyl)methanone]
melting point: 154 to 157 °C
IC50 [1]: 12.9 ± 3.3 µM
IC50 [2]: 15.7 ± 4.9 µM

The next lines start with results.

melting point: 147 to 149 °C
IC50 [1]: 21.1 ± 5.1 µM
IC50 [2]: 14.2 ± 9.7 µM
Structure (SMILES): COc1cc(C(=O)c2sc(NCc3ccccc3)nc2N)cc(OC)c1OC [8a, (4-Amino-2-(benzylamino)thiazol-5-yl)(3,4,5-trimethoxyphenyl)methanone]

melting point: 135 to 138 °C
IC50 [1]: 19.3 ± 5.6 µM
IC50 [2]: 20.5 ± 6.9 µM
Structure (SMILES): COc1cc(C(=O)c2sc(NCCc3ccccc3)nc2N)cc(OC)c1OC [8b, (4-Amino-2-(phenethylamino)thiazol-5-yl)(3,4,5-trimethoxyphenyl)methanone]

IC50 [1]: 10.7 ± 2.8 µM
IC50 [2]: 16.7 ± 7 µM
Structure (SMILES): COc1cc(C(=O)c2sc(NCCCc3ccccc3)nc2N)cc(OC)c1OC [8c, (4-Amino-2-((3-phenylpropyl)amino)thiazol-5-yl)(3,4,5-trimethoxyphenyl)methanone]
increase in potency relative to 8a and 8b ([1]; U-937 cells): 2 fold
